Columns and labels:
[1] = test system: total translation in BY4743 and YKO strains; assay type: cell-based, Saccharomyces cerevisiae
[2] = test system: mitochondrial translation in BY4743 and YKO strains; assay type: cell-based, Saccharomyces cerevisiae
[3] = test system: Saccharomyces cerevisiae homozygous diploid YKO strains and parental strain BY4743; assay type: cell-based
[4] = test system: Saccharomyces cerevisiae homozygous diploid YKO strains and parental strain BY4743; assay type: cell-based; remark: listed apart in the source

`C/C=C\C(=O)O[C@@H]1C[C@H]2O[C@@H]3C=C(C)C(=O)C[C@]3(C)[C@]1(C)[C@]21CO1` [T-cin, trichothecin] was tested. Which “inhibition of the cytosolic translation rate of BY4743” value [1] did it give?
Its value is 80-90%.

And the “effect on mitochondrial translation” value [2]?
Its value is “able to inhibit mitochondrial translation”.

And the “effect of the screening level of toxin on the parental strain” value [3]?
The value was “lethal”.

What about the “effect of the 2 μM screening concentration on growth (parental strain)” value [4] of the same compound?
The value was “non-lethal”.
